Where “and” joins values, the source holds several entries; their conditions need not be identical. Equal values may be shown once.
Tests used:
[1] = test system: males and females with hair-loss problems; test: In vivo test: combing test (number of hair lost during combing) in volunteers; design: species or system human
Protocol: (§1) Curcuma longa cell-free supernatant prepared as indicated in Example 2, as well as the peptide of SEQ ID NO: 6 in the PBS buffered fortifying solution 2× disclosed in Example 1 were tested in males and females (n=60, from 18 to 60 years old) with hair-loss problems. There were excluded those volunteers that received a capillary treatment three months before the assay, volunteers with cutanic pathologies at scalp (psoriasis, dermatitis, etc.) and allergy to compounds in the formulations.
(§2) Tested compounds were daily applied.
(§3) At time 0 (T0) there were taken scalp pictures (frontal and occipital parts), trichograms for determining the hair phase cycle (telogen or anagen phase), the combing test (number of hair lost during combing), and capillary density by microphotography with Trichoscan®.
(§4) At t=45 days and t=90 days, there were performed the combing test and the density tests (Trichoscan®)
(§5) At t=150 days again as in t=0.
(§6) Volunteers were separated in three groups. Group 1 receiving SEQ ID NO: 6 in the PBS buffered fortifying solution 2× disclosed in Example 1; Group 2 receiving Curcuma longa cell-free supernatant prepared as indicated in Example 2, and Group 3 the placebo.
In particular, this table includes the average values determined for combing test (number of hair lost during combing). From the combing test results at t=0, t=45 and t=90 the percentage of reduction of hair loss is calculated contrasting values of t=0 with the values at t=45 and at t=90.

[2] = test system: human dermal fibroblasts (HDF); test: Wound healing (scratch) assay on human dermal fibroblasts; assay type: cell-based; settings: FIG. 17; 5 μg/ml and 0.05 μg/ml; 5 days of treatment; triplicate mean; vs 0.1% FBS basal, 10% FBS and TGF-β1 positive controls
Protocol: In order to test the effect of the sulfaction state of the peptides on their activity, it is herewith provided as reference example a wound healing assay conducted onto human dermal fibroblasts (HDF).
Human dermal fibroblasts were seeded in a 24-well plate and were grown to confluence. A 2 mm width scratch was done on the culture monolayer. Then the test products in culture medium were added and the cicatrisation process was followed by means of phase contrast microscopy. With this aim, photographs were taken at initial of the test (T=0 h) before the scratching and after the treatment (at 12 h and at 72 h). Cicatrisation process was evaluated by quantifying wound area reduction at each time.
Data at the end of the test (5 days of treatment) are depicted in FIG. 17, wherein the wound healing potential is depicted as the Healed Area (in μm^2) for assayed peptide.
The results derive from a triplicate test. Values of cicatrised area (or % of cicatrisation) are the mean values.

[3] = test system: males and females with hair-loss problems; test: In vivo test: capillary (hair) density by Trichoscan microphotography in volunteers; design: species or system human
Protocol: as §1, §2, §3, §4, §5, §6
Data are depicted in next Table 2 for capillary density. This table includes the average values determined of capillary density increase after evaluating in each volunteer the number of hairs in a 0.25 cm^2 are, capillary density at t=0 and t=90, and said increase in relation to t=0 value

[4] = group mean, combing test, minimal and maximal values not considered
[5] = individual volunteers, negative = fewer hairs lost
[6] = group mean, minimal and maximal values not considered

With “CH3—C(O)—YIYT-NH2 (Ac-YIYT-NH2) [SEQ ID NO: 6, in vivo: dissolved 0.025% w/w in PBS buffered fortifying solution 2×]” the “reduction of the % of hair loss (in words)” value ([1]; T45, T90 and T150 compared with T0) was “meaningful reduction of the % of hair loss”, the “% REDUCTION OF HAIR LOSS T0 vs. T150, Mean” value [1, 4] was 68.15% and the “% hair-loss reduction t = 0 vs t = 45, mean” value [1, 4] was 40.48%. The “% hair-loss reduction t = 0 vs t = 90, mean” value [1, 4] was 39.72%, the “COMBING TEST T45” value ([1]; individual volunteers, number of hair lost during combing, day 45) was 7 and 54 and 23 and 13 and 88 and 184 and 34 and 58 and 60 and 62 and 50 and 10 and 31 and 28 and 101 and 66 and 24 and 14 and 46 and 92 and the “COMBING TEST T90” value ([1]; individual volunteers, number of hair lost during combing, day 90) was 6 and 88 and 28 (2×) and 36 and 154 and 60 and 50 and 61 and 84 and 27 and 12 and 45 and 118 and 91 and 23 and 22 and 59 and 62. For the same substance, the “COMBING TEST T150” value ([1]; individual volunteers, number of hair lost during combing, day 150) was 5 and 13 (2×) and 19 (2×) and 22 and 24 and 18 and 12 and 20 (3×) and 23 and 29 and 95 and 42 and 167 and 16 and 36, the “% REDUCTION OF HAIR LOSS T0 VS. T45” value [1, 5] was −86.27% and −55.74% and −46.51% and −69.05% and 72.55% and 183.08(*) % and −43.33% and −44.23% and −47.83% and −78.32% and −30.56% and −98.13(*) % and −36.73% and −68.54% and −31.29% and −67.00% and −22.58% and −64.10% and −42.50% and 33.33% and the “% REDUCTION OF HAIR LOSS T0 VS. T90” value [1, 5] was −88.24% and −27.87% and −34.88% and −33.33% and −29.41% and 136.92(*) % and 0.00% and −51.92% and −46.96% and −70.63% and −62.50% and −97.76(*) % and −49.44% and −19.73% and −54.50% and −25.81% and −43.59% and −26.25% and −10.14%. For the same substance, the “% REDUCTION OF HAIR LOSS T0 vs. T150” value [1, 5] was −90.20% and −89.34% and −69.77% and −54.76% and −56.86% and −63.08% and −70.00% and −88.46% and −82.61% and −91.96(*) % and −59.72% and −82.24% and −78.65% and −71.43% and −16.50% and −35.48(*) % and −58.97% and −55.00% and −71.01%, the “wound healing potential, Healed Area” value [2] was “independent of its sulfaction state” and the “new hairs appeared in the whole hair” value ([3]; concluded from the mean hair density increase at T150) was no more than 14000 hairs. For the same substance, the Capillary density increase ([3]; group average, t=90 in relation to t=0, daily application (Table 4)) was 14.66%, the “HAIR DENSITY INCREASE T90, Mean” value [3, 6] was 14.03% and the “HAIR DENSITY INCREASE T150, Mean” value [3, 6] was 19.27%. The “HAIR DENSITY INCREASE T90” value ([3]; individual volunteers, T90 vs T0) was 16.66% and 6.06% and 40.91% and 11.11% (2×) and 22.73% and 34.37% and 5.40% and 17.15% and 7.14% and 0.00% (3×) and −9.62%(*) and 70.01%(*) and 4.76% and 39.99% and 9.67% and 11.54%, the “HAIR DENSITY INCREASE T150” value ([3]; individual volunteers, T150 vs T0) was 24.99% and 6.06% and 36.36% and 14.63% and 18.18% and 21.87% and −5.41% and 2.86% and 35.71% and 0.00% (2×) and 14.81% and −7.69%(*) and 60.01% and 38.09% and 7.40% and 73.32%(*) and 9.67% and 42.31% and the “HAIR DENSITY 1/cm2 T90” value ([3]; individual volunteers, T90 days) was 111.38 1/cm2 and 139.22 1/cm2 and 123.31 1/cm2 (2×) and 119.33 1/cm2 (3×) and 107.4 1/cm2 (2×) and 171.04 1/cm2 and 155.13 1/cm2 and 163.09 1/cm2 and 115.35 1/cm2 (2×) and 186.95 1/cm2 and 135.24 1/cm2 (2×) and 87.51 1/cm2 and 83.53 1/cm2. For the same substance, the “Nr HAIRS/0.25 cm2 T90” value ([3]; individual volunteers, T90 days, daily application) was 28 HAIRS/0.25 cm2 and 35 HAIRS/0.25 cm2 and 31 HAIRS/0.25 cm2 (2×) and 30 HAIRS/0.25 cm2 (3×) and 27 HAIRS/0.25 cm2 (2×) and 43 HAIRS/0.25 cm2 and 39 HAIRS/0.25 cm2 and 41 HAIRS/0.25 cm2 and 29 HAIRS/0.25 cm2 (2×) and 47 HAIRS/0.25 cm2 and 34 HAIRS/0.25 cm2 (2×) and 22 HAIRS/0.25 cm2 and 21 HAIRS/0.25 cm2, the “HAIR DENSITY 1/cm2 T150” value ([3]; individual volunteers, T150 days) was 119.33 1/cm2 (2×) and 139.22 1/cm2 (2×) and 123.11 1/cm2 and 103.42 1/cm2 (2×) and 155.13 1/cm2 and 143.2 1/cm2 and 151.15 1/cm2 and 115.35 1/cm2 (3×) and 123.31 1/cm2 (2×) and 190.93 1/cm2 and 127.29 1/cm2 and 135.24 1/cm2 and 147.18 1/cm2 and the “Nr HAIRS/0.25 cm2 T150” value ([3]; individual volunteers, T150 days, daily application) was 30 HAIRS/0.25 cm2 (2×) and 35 HAIRS/0.25 cm2 (2×) and 31 HAIRS/0.25 cm2 (3×) and 26 HAIRS/0.25 cm2 (2×) and 39 HAIRS/0.25 cm2 and 36 HAIRS/0.25 cm2 and 38 HAIRS/0.25 cm2 and 29 HAIRS/0.25 cm2 (3×) and 48 HAIRS/0.25 cm2 and 32 HAIRS/0.25 cm2 and 34 HAIRS/0.25 cm2 and 37 HAIRS/0.25 cm2.

Reference: patent US12570694B2, “Peptides and pharmaceutical, nutraceutical or veterinary compositions for hair loss prevention and/or treatment” (VYTRUS BIOTECH, S.L., priority 2016, dated 2026)
